Where no end group is shown, it is not given here.
What follows are compounds tested against T1, HIV-1 RT (Human immunodeficiency virus type 1 group M subtype B, UniProt P03366) (assay: biochemical). Conditions: not given.
T1 construct: The heterodimeric p66/p51 RT was eluted with an imidazole gradient; p66 and p51 derived from p66 by proteolytic cleavage of the C-terminal RNAse H domain; made in house; host or cells: E. coli (M15 for the His-tagged subunits)
Protocol: RNA-dependent-DNA RT-polymerase activity was measured in a standard reaction assay using poly(rA)-(dT)15 as template/primer as described in Restle et al. (1990). Ten microliters of reverse transcriptase (RT) at 20 nM was incubated at 37° C. for 30 min with 20 μL of reaction buffer (50 mM Tris, pH 8.0, 80 mM KCl, 6 mM MgCl2, 5 mM DTT, 0.15 μM poly(rA-dT), 15 μM dTTP, 0.3 μCi 3H-dTTP). For peptide evaluation, HIV-1 RT was incubated with increasing concentrations of peptide inhibitors for […], and polymerase reaction was initiated by adding reaction buffer. Reactions were stopped by precipitation of nucleic acids with 5 ml of 20% trichloroacetic acid (TCA) solution for 2 h on ice, then filtered using a multiwell-sample collector (Millipore), and washed with 5% TCA solution. Filters were dried at 55° C. for 30 min and radionucleotide incorporation was determined by liquid scintillation spectrometry.
A series of peptides have been derived from Pep-A sequence (SEQ ID NO: 28), which is derived from HIV-1 reverse transcriptase. First, P1 peptide (SEQ ID NO: 1) was obtained by removing the N-terminal arginine of Pep-A. Then, additional peptides were generated by performing an alanine scan on P1. P1-derived peptides were evaluated using a standard polymerase RT assay. Reported data correspond to the mean of three separate experiments.

Row | Compound | Ki [µM] | inhibition of RT polymerase activity (in words)
1 | GTKALTEVIPATEEAE [Peptide P12] | 22 ± 3 | 
2 | GTKWATEWAPLTAEAE [Peptide P28] | 2 ± 0.6 | 
3 | CC[C@H](C)[C@H](NC(=O)[C@@H](NC(=O)[C@H](CCC(=O)O)NC(=O)[C@@H](NC(=O)[C@H](CC(C)C)NC(=O)[C@H](C)NC(=O)[C@H](CCCCN)NC(=O)[C@H](C)NC(=O)CN)[C@@H](C)O)C(C)C)C(=O)N1CCC[C@H]1C(=O)N[C@@H](CC(C)C)C(=O)N[C@H](C(=O)N[C@@H](CCC(=O)O)C(=O)N[C@@H](CCC(=O)O)C(=O)N[C@@H](C)C(=O)N[C@@H](CCC(=O)O)C(=O)O)[C@@H](C)O [Peptide P3] | 10.3 ± 2.1 | 
4 | CC[C@H](C)[C@H](NC(=O)[C@@H](NC(=O)[C@H](CCC(=O)O)NC(=O)[C@@H](NC(=O)[C@H](CC(C)C)NC(=O)CNC(=O)[C@H](CCCCN)NC(=O)[C@@H](NC(=O)CN)[C@@H](C)O)[C@@H](C)O)C(C)C)C(=O)N1CCC[C@H]1C(=O)N[C@@H](CC(C)C)C(=O)N[C@H](C(=O)N[C@@H](CCC(=O)O)C(=O)N[C@@H](CCC(=O)O)C(=O)N[C@@H](C)C(=O)N[C@@H](CCC(=O)O)C(=O)O)[C@@H](C)O [Peptide P5] | 20 ± 3.7 | 
5 | GTKALAEVIPLTEEAE [Peptide P7] | 13.5 ± 2.1 | 
6 | GTKALTEVIPLAEEAE [Peptide P13] | 10.2 ± 2.5 | 
7 | CC[C@H](C)[C@H](NC(=O)[C@@H](NC(=O)[C@H](CCC(=O)O)NC(=O)[C@@H](NC(=O)[C@H](CC(C)C)NC(=O)[C@H](C)NC(=O)[C@H](C)NC(=O)[C@@H](NC(=O)CN)[C@@H](C)O)[C@@H](C)O)C(C)C)C(=O)N1CCC[C@H]1C(=O)N[C@@H](CC(C)C)C(=O)N[C@H](C(=O)N[C@@H](CCC(=O)O)C(=O)N[C@@H](CCC(=O)O)C(=O)N[C@@H](C)C(=O)N[C@@H](CCC(=O)O)C(=O)O)[C@@H](C)O [Peptide P4] | 15 ± 2.9 | 
8 | GTKAWTEVWPL [Peptide P17] | 35 ± 11 | 
9 | GTKAATEVIPLT [Peptide P19] | 49 ± 9 | 
10 | CC[C@H](C)[C@H](NC(=O)[C@@H](NC(=O)[C@H](CCC(=O)O)NC(=O)[C@@H](NC(=O)[C@H](CC(C)C)NC(=O)[C@H](C)NC(=O)[C@H](CCCCN)NC(=O)[C@@H](NC(=O)[C@H](C)N)[C@@H](C)O)[C@@H](C)O)C(C)C)C(=O)N1CCC[C@H]1C(=O)N[C@@H](CC(C)C)C(=O)N[C@H](C(=O)N[C@@H](CCC(=O)O)C(=O)N[C@@H](CCC(=O)O)C(=O)N[C@@H](C)C(=O)N[C@@H](CCC(=O)O)C(=O)O)[C@@H](C)O [Peptide P2] | 28 ± 11 | 
11 | CC[C@H](C)[C@H](NC(=O)[C@@H](NC(=O)[C@H](CCC(=O)O)NC(=O)[C@@H](NC(=O)[C@H](CC(C)C)NC(=O)[C@H](C)NC(=O)[C@H](CCCCN)NC(=O)[C@@H](NC(=O)CN)[C@@H](C)O)[C@@H](C)O)C(C)C)C(=O)N1CCC[C@H]1C(=O)N[C@@H](CC(C)C)C(=O)N[C@H](C(=O)N[C@@H](C)C(=O)N[C@@H](CCC(=O)O)C(=O)N[C@@H](C)C(=O)N[C@@H](CCC(=O)O)C(=O)O)[C@@H](C)O [Peptide P14] | 14 ± 3 | 
12 | CC[C@H](C)[C@H](NC(=O)[C@@H](NC(=O)[C@H](CCC(=O)O)NC(=O)[C@@H](NC(=O)[C@H](CC(C)C)NC(=O)[C@H](C)NC(=O)[C@H](CCCCN)NC(=O)[C@@H](NC(=O)CN)[C@@H](C)O)[C@@H](C)O)C(C)C)C(=O)N1CCC[C@H]1C(=O)N[C@@H](CC(C)C)C(=O)N[C@H](C(=O)O)[C@@H](C)O [Peptide P18] | 53 ± 12 | does not inhibit RT polymerase activity
13 | GTKALTEAIPLTEEAE [Peptide P9] | 15 ± 7.3 | 
14 | CC[C@H](C)[C@H](NC(=O)[C@@H](NC(=O)[C@H](CCC(=O)O)NC(=O)[C@@H](NC(=O)[C@H](CC(C)C)NC(=O)[C@H](C)NC(=O)[C@H](CCCCN)NC(=O)[C@@H](NC(=O)CN)[C@@H](C)O)[C@@H](C)O)C(C)C)C(=O)N1CCC[C@H]1C(=O)N[C@@H](CC(C)C)C(=O)N[C@H](C(=O)N[C@@H](CCC(=O)O)C(=O)N[C@@H](C)C(=O)N[C@@H](C)C(=O)N[C@@H](CCC(=O)O)C(=O)O)[C@@H](C)O [Peptide P15] | 14 ± 2.2 | 
15 | KWLTEWIPLTAE [Peptide P29] | 1 ± 0.4 | 
16 | GAKTETLVIPETELEA [Pscramble] | 61 ± 12 | 

Same assay, conditions: relative to PAW

Row | Compound | reduction of efficiency (higher Ki) relative to PAW [fold]
17 | GTKAWTEVWPL [Peptide P17] | 50

Source: patent US20110294728A1, “Antiviral Polypeptides” (priority 2008, published 2011)
